# Data as given in paper PMC12680861, “Comparative analysis of LJ-4378 and tirzepatide in mouse models of obesity and weight regain” (Archives of Pharmacal Research, 2025).
# Tests used:
# [1] = target: CYP2C9 (Homo sapiens, UniProt P11712); assay: CYP enzyme inhibition in pooled human liver microsomes (diclofenac substrate); settings: microsomes, 10 µM
# Experimental: Cytochrome 450 (CYP) enzyme inhibition was evaluated using pooled human liver microsomes (Corning, #452117). […] Substrates and corresponding metabolites for each CYP isoform were as follows: phenacetin and acetaminophen for CYP1A2 (Sigma Aldrich, #77440 and A7085, respectively), diclofenac and 4'-hydroxydiclofenac for CYP2C9 (Sigma Aldrich, D6899; TRC, H825225), S-mephenytoin and 4'-hydroxymephenytoin for CYP2C19 (Sigma Aldrich, UC175; Santacruz, sc210197), dextromethorphan and dextrorphan for CYP2D6 (Sigma Aldrich, #81091 and UC205), and midazolam and 1'-hydroxymidazolam for CYP3A4 (KFDA; Sigma Aldrich, UC430).
# Samples were preincubated at 37 °C for 5 min, and the reaction was initiated by the addition of the NADPH regeneration system, followed by incubation at 37 °C for 15 min. The reaction was terminated by adding acetonitrile containing the internal standard, and centrifuged at 15,000 rpm for 5 min at 4 °C. The supernatant was analyzed by LC–MS/MS using a Nexera XR system (Shimadzu, Japan) coupled with a TSQ Vantage mass spectrometer (Thermo, USA). […] Metabolites were quantified in multiple reaction monitoring (MRM) mode with Xcalibur software (version 4.4).
# All experiments were performed in duplicate with variability ≤ 15%. The percent activity of each CYP enzyme was calculated based on metabolite formation relative to the no-inhibitor control.
# [2] = tested on: mice; assay: Serum markers of hepatic, renal and cardiac toxicity; assay type: in vivo; settings: 1 mg/kg, 2 weeks
# Experimental: Serum aspartate aminotransferase (AST), alanine aminotransferase (ALT), blood urea nitrogen (BUN), Creatinine, Creatine kinase MB (CKMB), and lactate dehydrogenase (LDH) levels were analyzed with Fujifilm Dri-Chem 3500 s (Fujifilm, Kanagawa, Japan) according to the manufacturer’s instructions. The slides GOT/AST-P III, GPT/ALT-P III, BUN-P III, CRE-P III, CKMB-P, and LDH-P III were used.
# a-f. Serum levels of aspartate transaminase (AST), alanine transaminase (ALT), blood urea nitrogen (BUN), creatinine, creatine kinase MB (CKMB), and lactate dehydrogenase (LDH) in 2 weeks of LJ-4378 (1mg/kg) treatment in mice. n = 3. Statistical significance was determined using an unpaired two-tailed t-test.
# [3] = Plasma stability assay; assay type: in vitro ADME, human; settings: 37 °C, 30 min
# Experimental: (§1) The plasma stability of LJ-4378 was evaluated using 100% plasma obtained from human (Biochemed, BC22089NCP, sodium citrate), rat (Innovative, IRT-N, sodium citrate), and mouse (Biochemed, 029-APSC-MP, sodium citrate). 10 Μm of LJ-4378 was added to the plasma, and samples were incubated at 37 °C for 0, 30, and 120 min. At each time point, an aliquot of the plasma was removed and mixed with acetonitrile containing the internal standard, chlorpropamide (TRC, C424800). […] The supernatant was injected into the LC–MS/MS system for quantification of the remaining compound. Analysis was performed using a Nexera XR system (Shimadzu, Japan) with a TSQ Vantage mass spectrometer (Thermo, USA). […] Data acquisition was conducted in MRM mode using Xcalibur software (version 4.4). All experiments were performed in duplicate with a deviation within 15%, and the percentage of compound remaining (% Remaining) at each time point was calculated relative to the non-incubated control sample. For quality control, procaine and enalapril (each at 10 μM) were used as reference compounds and were confirmed to fall within acceptable ranges.
# [4] = Plasma stability assay; assay type: in vitro ADME, rat; settings: 37 °C, 30 min
# Experimental: as §1
# [5] = Plasma stability assay; assay type: in vitro ADME, mouse; settings: 37 °C, 30 min
# Experimental: as §1
# [6] = Steady state tissue partition coefficient after I.V. infusion; assay type: in vivo, SD rats
# Experimental: In this study, steady state tissue partition coefficients ( KP,T , i.e., the ratio of tissue to plasma concentrations in steady state) Eq. (1) were determined for LJ-4378 in SD rats. […] Therefore, to ensure a steady state condition, rats received I.V. infusion (i.e., infusion solution, 5% DMSO in normal saline; delivery rate, 10 µL/min; infusion rate, 0.31 µg/µL; total dose of LJ-4378, 0.837 mg per rat) for 270 min (i.e., the time exceeding five times the half-life). Blood samples (~ 150 µL) were collected from the animal at every 10 min from 240 to 270 min for the confirmation of the steady state of the compound. At completion of the last blood collection, rats were sacrificed by decapitation, and four representative tissues (i.e., gonadal adipose, brain, lung, and liver) were harvested. Tissues were then washed four times with ice-Dulbecco’s phosphate-buffered saline (DPBS), weighed, and homogenized in two volumes of DPBS using an Ultra Turrax homogenizer (IKA, Staufen, Germany). Aliquots (50 µL) of plasma and tissue homogenate were mixed with 200 µL ice-cold acetonitrile containing propranolol (100 ng/mL, internal standard). After vortex mixing for 10 min, the mixture was centrifuged at 16,100 × g for 5 min at 4 °C, and 10 µL of the supernatant was injected directly onto the HPLC–MS/MS system. The concentration of LJ-4378 in the biological sample was quantified on an Agilent 1200 HPLC coupled to an API 3200 mass spectrometer with a Phenomenex Luna C18(2) column (3 µm, 100 Å, 50 × 2 mm). Chromatography was performed under isocratic conditions with 80% acetonitrile containing 0.1% formic acid (mobile phase A) and 20% water containing 0.1% formic acid (mobile phase B) at a flow rate of 0.4 mL/min.
# When calculating KP,T for LJ-4378 in […], Eq. (1) was used:1 KP,T=CT,ss/Cp,ss where CT,ss and Cp,ss represented the tissue and plasma concentrations at 270 min after the initiation of LJ-4378 infusion. In addition, under the free-drug hypothesis, the KP,T can be expressed as the ratio of the unbound fractions in plasma ( fup ) and tissue ( fu,T ) [Eq. (2)]. Given similar interspecies values of tissue unbound fraction (Poulin and Theil [2000]), the rat KP,T values were extrapolated to those in mice and humans using the following Eq. (3):2 KP,T=fup/fu,T 3 KP,T,extrapolated=KP,T,rat×fup/fup,rat
# [7] = design: method as in Jastreboff et al. [2022]; Sattar et al. [2022]; settings: over 72 weeks; ref Jastreboff et al. [2022]; Sattar et al. [2022]; cited from earlier work
# [8] = SD rats (observed), I.V. infusion 270 min
# Sequence of CYP2C9 (P11712 whole entry, canonical isoform): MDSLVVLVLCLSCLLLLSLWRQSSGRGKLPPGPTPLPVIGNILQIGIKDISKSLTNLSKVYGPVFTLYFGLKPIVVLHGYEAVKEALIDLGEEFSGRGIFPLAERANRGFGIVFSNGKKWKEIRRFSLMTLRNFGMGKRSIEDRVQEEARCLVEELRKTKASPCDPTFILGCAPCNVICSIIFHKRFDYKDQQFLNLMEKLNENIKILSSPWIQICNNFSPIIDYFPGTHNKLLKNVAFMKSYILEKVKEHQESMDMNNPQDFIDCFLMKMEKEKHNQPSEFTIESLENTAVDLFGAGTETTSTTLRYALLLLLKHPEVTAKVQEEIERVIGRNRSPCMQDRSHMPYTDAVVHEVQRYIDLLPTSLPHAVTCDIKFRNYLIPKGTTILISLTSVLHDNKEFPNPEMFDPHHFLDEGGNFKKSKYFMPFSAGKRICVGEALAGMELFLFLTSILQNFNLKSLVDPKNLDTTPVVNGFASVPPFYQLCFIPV
Compound,% of control activity CYP2C9 [1],"hepatic, renal, and cardiac injury markers (AST, ALT, BUN, creatinine, CKMB, LDH) [2]","% Remaining compound, Human plasma 30 min [3]","% Remaining compound, Rat plasma 30 min [4]","% Remaining compound, Mouse plasma 30 min [5]","Steady state tissue partition coefficient (KP,T), Adipose [6, 8]","Steady state tissue partition coefficient (KP,T), Liver [6, 8]","Steady state tissue partition coefficient (KP,T), Lungs [6, 8]","partitioning in adipose tissue relative to brain ([6]; SD rats, steady state)",weight reductions in clinical studies [7]
CCCCC#Cc1nc(N)c2ncn([C@@H]3SC[C@@H](O)[C@H]3O)c2n1 [LJ-4378],95.8%,no evidence of organ toxicity,97.0%,> 100%,98.4%,0.0843 ± 0.00653,0.440 ± 0.194,0.228 ± 0.0793,over four-fold higher partitioning,
"Tirzepatide [TZP, reference compound]",,,,,,,,,,up to 22.5%
